According to PMC7997578, “Design, Synthesis, Dynamic Docking, Biochemical Characterization, and in Vivo Pharmacokinetics Studies of Novel Topoisomerase II Poisons with Promising Antiproliferative Activity” (Journal of Medicinal Chemistry, 2020):
Values after ≈ are worked out from the molar mass of the structure shown. Like-named read-outs stand apart in the source and are kept apart here.

Key:
[1] = molecular target: T1, human topoIIα (Homo sapiens, UniProt P11388); experiment: topoII decatenation assay (Inspiralis); type: biochemical
T1 construct: purchased Inspiralis
T1 sequence (P11388 whole entry): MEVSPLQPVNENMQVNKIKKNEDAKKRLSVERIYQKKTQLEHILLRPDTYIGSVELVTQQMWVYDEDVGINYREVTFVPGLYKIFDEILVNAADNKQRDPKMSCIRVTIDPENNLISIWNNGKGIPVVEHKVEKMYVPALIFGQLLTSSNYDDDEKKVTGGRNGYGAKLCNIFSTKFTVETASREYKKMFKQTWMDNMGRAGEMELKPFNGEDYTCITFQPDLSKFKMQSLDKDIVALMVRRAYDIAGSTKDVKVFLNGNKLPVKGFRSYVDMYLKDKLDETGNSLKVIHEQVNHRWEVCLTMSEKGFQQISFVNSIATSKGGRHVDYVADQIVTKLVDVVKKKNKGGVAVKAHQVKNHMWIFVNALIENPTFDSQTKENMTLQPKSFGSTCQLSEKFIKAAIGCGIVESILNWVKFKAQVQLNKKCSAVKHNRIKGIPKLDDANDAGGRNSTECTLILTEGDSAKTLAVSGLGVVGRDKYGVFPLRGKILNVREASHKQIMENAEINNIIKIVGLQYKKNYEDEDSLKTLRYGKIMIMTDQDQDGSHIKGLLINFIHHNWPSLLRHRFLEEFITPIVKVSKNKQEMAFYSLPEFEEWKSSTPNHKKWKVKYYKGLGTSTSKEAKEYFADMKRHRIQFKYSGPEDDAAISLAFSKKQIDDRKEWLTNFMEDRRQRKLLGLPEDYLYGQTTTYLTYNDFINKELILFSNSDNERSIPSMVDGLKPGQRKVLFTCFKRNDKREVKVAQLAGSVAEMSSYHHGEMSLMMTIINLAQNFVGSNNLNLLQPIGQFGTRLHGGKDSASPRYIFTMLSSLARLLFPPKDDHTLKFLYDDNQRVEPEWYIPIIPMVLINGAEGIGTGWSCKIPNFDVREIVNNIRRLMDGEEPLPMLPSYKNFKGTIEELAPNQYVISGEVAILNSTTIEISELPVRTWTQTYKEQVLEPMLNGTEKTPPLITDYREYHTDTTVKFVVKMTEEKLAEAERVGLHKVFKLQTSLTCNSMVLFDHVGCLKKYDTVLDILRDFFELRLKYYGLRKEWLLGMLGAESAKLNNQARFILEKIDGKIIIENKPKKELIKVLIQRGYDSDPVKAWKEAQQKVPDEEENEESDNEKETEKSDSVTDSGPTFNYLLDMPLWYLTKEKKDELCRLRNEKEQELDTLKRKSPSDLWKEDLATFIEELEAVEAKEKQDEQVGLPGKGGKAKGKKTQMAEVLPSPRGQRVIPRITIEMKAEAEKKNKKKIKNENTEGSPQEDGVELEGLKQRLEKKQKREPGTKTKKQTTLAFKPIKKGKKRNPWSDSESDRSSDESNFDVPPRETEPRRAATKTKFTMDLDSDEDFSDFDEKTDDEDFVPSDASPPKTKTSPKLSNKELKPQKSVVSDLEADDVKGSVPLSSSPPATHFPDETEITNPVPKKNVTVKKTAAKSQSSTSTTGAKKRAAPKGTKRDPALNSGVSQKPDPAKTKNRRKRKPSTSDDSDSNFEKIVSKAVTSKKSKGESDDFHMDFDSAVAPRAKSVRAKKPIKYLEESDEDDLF
Description: We measured the inhibitor activity of our new compounds against human topoIIα, using a topoII decatenation assay (Table 1).
The activity of topoIIα was measured using a decatenation assay (Inspiralis) following the manufacturer’s instructions. Compounds were dissolved in DMSO and used at a concentration ranging from 200 to 1 μM. Final DMSO concentration in the assay was ≤1%. Reaction mixtures were incubated for 30 min at 37 °C and terminated with STEB buffer (40% (w/v) sucrose, 100 mM Tris-HCl, pH 8, 1 mM EDTA, 0.5 mg/mL bromophenol blue). Reaction products were resolved by electrophoresis in 1% agarose gels containing SYBR Safe DNA stain (Invitrogen), scanned, and quantified using the ChemiDoc system (BioRad). IC50 values were obtained with GraphPad Prism software (version 5.03) using the band intensities of the dose–response gels. Values are reported as the mean ± SD of two independent experiments.

[2] = tested on: A549 cells; experiment: cell viability MTT assay, A549; type: cell-based, human; conditions: mean ± SD of two experiments, read-out: A549 antiproliferative activity IC50
Description: (§1) The antiproliferative activity of all compounds was evaluated in (i) DU145, an androgen-independent prostate cancer cell line; (ii) HeLa, a cervical cancer cell line; and (iii) A549, a lung adenocarcinoma cell line (Table 1). […] Undoubtedly, this preliminary cytotoxicity data will need further characterization, also in relation to the in vitro activity of these compounds.
(§2) Human cancer cell lines A549 (lung adenocarcinoma, ATCC CCL-185), DU-145 (androgen-independent prostate cancer, ATCC HTB-81), and HeLa (cervical carcinoma, ATCC CCL-2) were obtained from ATCC. Cells were routinely grown in minimal essential medium containing Eagle’s salts and L-glutamine supplemented with 10% heat-inactivated FBS in a humidified atmosphere of 5% CO2 at 37 °C. To assess the antiproliferative activity of the compounds, cells were seeded at a density of 2500 cells/well (HeLa) or 5000 cells/well (A549, DU-145) in 96-well plates, and cell viability was measured using the MTT assay as described previously.[39] Values are reported as the mean ± SD of two independent experiments.

[3] = tested on: DU145 cells; experiment: cell viability MTT assay, DU145; type: cell-based, human; conditions: mean ± SD of two experiments, read-out: DU145 antiproliferative activity IC50
Description: as §1, §2

[4] = tested on: HeLa cells; experiment: cell viability MTT assay, HeLa; type: cell-based, human; conditions: HeLa cervical cancer cells, mean ± SD of two experiments, read-out: HeLa antiproliferative activity IC50
Description: as §1, §2

[5] = aqueous kinetic solubility; type: physicochemical; conditions: PBS, pH 7.4, PBS pH 7.4, target 250 µM, 2.5% DMSO, 25°C
Description: 1. In vitro m etabolic stabili ty
In vitro microsomial stability. 10mM DMSO stock solution of test compound was pre-incubated at 37 °C for 15min with mouse liver microsomes added 0.1M Tris-HCl buffer (pH 7.4). The final concentration was 4.6µM. After pre -incubation, the co-factors (NADPH, G6P, G6PDH and MgCl2 pre-dissolved in 0.1M Tris-HCl) were added to the incubation mixture and the incubation was continued at 37 °C for 1h. At each time point (0, 5, 15, 30, 60min), 30µL of incubation mixture was diluted with 200µL cold CH 3CN spiked with 200n M of internal standard, followed by centrifugation at 3500g for 15min. The supernatant was further diluted with H2O (1:1) for analysis. The concentration of test compound was quantified by LC/MS-MS on a Waters ACQUITY UPLC/M S TQD system consisting of a TQD (Triple Quadrupole Detector) Mass Spectrometer equipped with an Electrospray Ionization interface. The analyses were run on an ACQUITY UPLC BEH C18 (50x2.1mmID, particle size 1.7µm) with a VanGuard BEH C18 pre -column (5x2.1mmID, particle size 1.7µm) at 40°C, using 0.1% HCOOH in H 2O (A) and 0.1% HCOOH in CH 3CN (B) as mobile phase. Electrospray ionization (ESI) was app lied in positive mode . The percentage of test compound remaining at each time point relative to t=0 was calculated. The half -lives (t½) were determined by an one-phase decay equation using a non -linear regression of compound concentration versus time.
In vitro Plasma Stability. 10mM DMSO stock solution of test compound was diluted 50 -fold with DMSO-H2O (1:1) and incubated at 37 °C for 2 h with mouse plasma added 5% DMSO (pre-heated at 37 °C for 10 min). The final concentration was 2µM. At each time point (0, 5, 15, 30, 60, 120min), 50 µL of incubation mixture was diluted with 200µL cold CH3CN spiked with 200nM of internal standard, followed by centrifugation at 3500g for 20min. The supernatant was further diluted with H2O (1:1) for analysis. The concentration of test compound was quantified by LC/MS-MS on a Waters ACQUITY UPLC/MS TQD system consisting of a TQD (Triple Quadrupole Detector) Mass Spectrometer equipped with an Electrospray Ionization interface. The analyses were run on an ACQUITY UPLC BEH C18 (50x2.1mmID, particle size 1.7µm) with a VanGuard BEH C18 pre - column (5x2.1mmID, particle size 1.7µm) at 40°C, using 0.1% HCOOH in H2O (A) and 0.1% HCOOH in CH3CN (B) as mobile phase. Electrospray ionization (ESI) was applied in positive mode.
The response factors, calculated on the basis of the internal standard peak area, were plotted over time. When possible, response vs. time profiles were fitted with Prism (GraphPad Software, Inc., USA) to estimate compounds half-life in plasma.
2. Aqueous ki netic solu bili ty
The aqueous kinetic solubility was determined from a 10mM DMSO stock solution of test compound in Phosphate Buffered Saline (PBS) at pH 7.4. The study was performed by incubation of an aliquot of 10mM DMSO stock solution in PBS (pH 7.4) at a target concentration of 250µM resulting in a final concentration of 2.5% DMSO. The incubation was carried out under shaking at 25°C for 24h followed by centrifugation at 21.100g for 30min. The supernatant was analyzed by UPLC/MS for the quantification of dissolved compound by UV at a specific wavelength (215nm).
The analyses were performed on a Waters ACQUITY UPLC/MS SQD system consisting of a SQD (Single Quadrupole Detector) Mass Spectrometer equipped with Electrospray Ionization interface.
The analyses were run on an ACQUITY UPLC BEH C18 column (50x2.1mmID, particle size 1.7µm) with a VanGuard BEH C18 pre-column (5x2.1mmID, particle size 1.7µm), using 10mM NH4OAc in H2O at pH 5 adjusted with AcOH (A) and 10mM NH4OAc in MeCN-H2O (95:5) at pH 5 (B) as […]

[6] = human topoIIα decatenation assay, mean ± SD of two independent experiments, read-out: IC50
[7] = Homo sapiens, A549, A549 lung adenocarcinoma cells
[8] = Homo sapiens, DU-145, DU145 prostate cancer cells
[9] = topoIIα decatenation IC50 versus ARN16267

SMILES | IC50 [1, 6] | IC50 [2, 7] | IC50 [3, 8] | IC50 ([4]; Homo sapiens, HeLa) | solubility kinetic at 24 h [5] | IC50 ([2]; A549 lung adenocarcinoma cells) | IC50 ([3]; DU145 prostate cancer cells) | IC50 [4] | fold drop in activity compared to ARN16267 [1, 9] | fold increased activity compared to ARN16267 [1, 9] | IC50 [1]
CCOc1cccc(NC(=O)c2c(O)n(-c3ccccc3)c(=S)n(-c3ccccc3)c2=O)c1 [3a, N-(3-Ethoxyphenyl)-6-hydroxy-4-oxo-1,3-diphenyl-2-thioxo-1,2,3,4-tetrahydropyrimidine-5-carboxamide] | 12.4 ± 3.7 µM | 3.6 ± 0.4 µM | 5.7 ± 1.4 µM | 5.2 ± 0.9 µM | – | – | – | – | – | – | –
CC(C)Oc1cccc(NC(=O)c2c(O)n(-c3ccccc3)c(=S)n(-c3ccccc3)c2=O)c1 [3b, 6-Hydroxy-N-(3-isopropoxyphenyl)-4-oxo-1,3-diphenyl-2-thioxo-1,2,3,4-tetrahydropyrimidine-5-carboxamide] | 9.7 ± 2.6 µM | 3 ± 0.3 µM | 5.5 ± 0.1 µM | 4.2 ± 0.3 µM | 34 µM (≈ 16.1 µg/mL) | – | – | – | – | – | –
N#Cc1cccc(NC(=O)c2c(O)n(-c3ccccc3)c(=S)n(-c3ccccc3)c2=O)c1 [3c, N-(3-Cyanophenyl)-6-hydroxy-4-oxo-1,3-diphenyl-2-thioxo-1,2,3,4-tetrahydropyrimidine-5-carboxamide] | 14.4 ± 3.8 µM | 16.9 ± 0.3 µM | 14.4 ± 4.1 µM | 12.4 ± 1.3 µM | – | – | – | – | – | – | –
O=C(Nc1cccc([N+](=O)[O-])c1)c1c(O)n(-c2ccccc2)c(=S)n(-c2ccccc2)c1=O [3d, 6-Hydroxy-N-(3-nitrophenyl)-4-oxo-1,3-diphenyl-2-thioxo-1,2,3,4-tetrahydropyrimidine-5-carboxamide] | 10.2 ± 4.6 µM | 18.5 ± 3.1 µM | 6.9 ± 0.3 µM | 11.9 ± 2.6 µM | – | – | – | – | – | – | –
O=C(Nc1cccc(F)c1)c1c(O)n(-c2ccccc2)c(=S)n(-c2ccccc2)c1=O [3e, N-(3-Fluorophenyl)-6-hydroxy-4-oxo-1,3-diphenyl-2-thioxo-1,2,3,4-tetrahydropyrimidine-5-carboxamide] | 15.1 ± 4.2 µM | 4.1 ± 0.2 µM | 5.6 ± 0.6 µM | 5.6 ± 0.5 µM | – | – | – | – | – | – | –
CC(F)(F)c1cccc(NC(=O)c2c(O)n(-c3ccccc3)c(=S)n(-c3ccccc3)c2=O)c1 [3h, N-(3-(1,1-Difluoroethyl)phenyl)-6-hydroxy-4-oxo-1,3-diphenyl-2-thioxo-1,2,3,4-tetrahydropyrimidine-5-carboxamide] | 9.2 ± 0.2 µM | < 5 µM | < 5 µM | < 5 µM | 6 µM (≈ 2.88 µg/mL) | 3 ± 1.1 µM | 2.7 ± 2.5 µM | 2.5 ± 0.4 µM | – | – | –
COc1cc(NC(=O)c2c(O)n(-c3ccccc3)c(=S)n(-c3ccccc3)c2=O)ccc1F [3j] | 22.5 ± 5.8 µM | 4.6 ± 0.1 µM | 7.8 ± 0.6 µM | 5.3 ± 1 µM | – | – | – | – | – | – | –
COc1cccc(CNC(=O)c2c(O)n(-c3ccccc3)c(=S)n(-c3ccccc3)c2=O)c1 [5d, 6-Hydroxy-N-(3-methoxybenzyl)-4-oxo-1,3-diphenyl-2-thioxo-1,2,3,4-tetrahydropyrimidine-5-carboxamide] | 22.5 ± 7.2 µM | 4.8 ± 0.4 µM | 7.7 ± 0.1 µM | 6.1 ± 1.1 µM | – | – | – | – | 1.4 fold | – | –
COc1cccc(CCNC(=O)c2c(O)n(-c3ccccc3)c(=S)n(-c3ccccc3)c2=O)c1 [5e, 6-Hydroxy-N-(3-methoxyphenethyl)-4-oxo-1,3-diphenyl-2-thioxo-1,2,3,4-tetrahydropyrimidine-5-carboxamide] | 15.8 ± 3.4 µM | < 5 µM | < 5 µM | < 5 µM | 122 µM (≈ 57.8 µg/mL) | 3.2 ± 1.2 µM | 3.3 ± 2.5 µM | 3.4 ± 0.1 µM | – | – | –
COc1cccc(/C=C/CNC(=O)c2c(O)n(-c3ccccc3)c(=S)n(-c3ccccc3)c2=O)c1 [5f, (E)-6-Hydroxy-N-(3-(3-methoxyphenyl)allyl)-4-oxo-1,3-diphenyl-2-thioxo-1,2,3,4-tetrahydropyrimidine-5-carboxamide] | 8.3 ± 2.3 µM | 4.4 ± 0.6 µM | 5 ± 2.9 µM | 5.5 ± 1.1 µM | – | – | – | – | – | 2 fold | –
COc1cc(CNC(=O)c2c(O)n(-c3ccccc3)c(=S)n(-c3ccccc3)c2=O)cc(OC)c1O [compound 6, 6-Hydroxy-N-(4-hydroxy-3,5-dimethoxybenzyl)-4-oxo-1,3-diphenyl-2-thioxo-1,2,3,4-tetrahydropyrimidine-5-carboxamide] | 108 ± 10.1 µM | 14.7 ± 0.3 µM | 8.8 ± 0.3 µM | 19.1 ± 4.8 µM | – | – | – | – | 7 fold | – | > 100 µM
COc1cc(CCNC(=O)c2c(O)n(-c3ccccc3)c(=S)n(-c3ccccc3)c2=O)cc(OC)c1O [compound 7, 6-Hydroxy-N-(4-hydroxy-3,5-dimethoxyphenethyl)-4-oxo-1,3-diphenyl-2-thioxo-1,2,3,4-tetrahydropyrimidine-5-carboxamide] | 74.4 ± 13.6 µM | 14.8 ± 1.4 µM | 13.9 ± 7.6 µM | 13.3 ± 1.7 µM | – | – | – | – | – | – | –
COc1cc(/C=C/CNC(=O)c2c(O)n(-c3ccccc3)c(=S)n(-c3ccccc3)c2=O)cc(OC)c1O [compound 8, (E)-6-Hydroxy-N-(3-(4-hydroxy-3,5-dimethoxyphenyl)allyl)-4-oxo-1,3-diphenyl-2-thioxo-1,2,3,4-tetrahydropyrimidine-5-carboxamide] | 28 ± 4.4 µM | 9.5 ± 1.5 µM | 9.8 ± 2.1 µM | 9.3 ± 0.2 µM | – | – | – | – | – | – | –
